Experiments:
[1] = test system: c-MYC protein; assay: Western blot of c-MYC protein in Cal27 cells; type: cell-based, human; conditions: Cal27, 24 h
Procedure: (§1) After Cal27 cells had been treated with the desired concentration of each drug for 24 h, the cells were collected and the total protein was extracted. The cells were then separated on a gel of appropriate concentration and transferred to a PVDF membrane. After blocking with milk, the membrane was incubated with primary antibody at 4 °C overnight. Subsequently, the membrane was incubated with horseradish peroxidase-coupled secondary antibody for 2 h. Finally, the protein bands were used to detect the immunoreactive signal using an enhanced chemiluminescence kit.

[2] = test system: Cal27 cells; assay: MTT cell survival with autophagy inhibitor CQ; type: cell-based, human; conditions: Cal27, 20 μM CQ and different concentrations of 7be
Procedure: Meanwhile, to further confirm that compound 7be could induce autophagic death in Cal27 cells, we used a classical autophagy inhibitor, chloroquine (CQ), to evaluate the role of autophagy in compound 7be-mix-induced cell death.
Human oral cancer Cal27 cells were seeded in 96-well plates and incubated overnight in 180 μL of medium containing 10% Fetal Bovine Serum (Gibco, San Francisco, CA, USA). On the following day, compounds at final concentrations of 2.5, 5, 10 and 20 μM were added to each well and incubated for 48 h. Then, 10 μL of 5 mg/mL MTT solution was added to each well and incubated at 37 °C for 4 h. After 4 h of incubation at 37 °C, the MTT-containing medium was removed and DMSO was added to each well and the absorbance at 570 nm and 630 nm was measured using a microplate reader (CYTATION 3, Burton, Westwood, NJ, USA). Survival/% = (mean OD of experimental group/mean OD of control group) × 100%. Each test was repeated at least three times.

[3] = target: T1, Topo I (Homo sapiens, UniProt P11387); assay: Topo I inhibitory activity, agarose gel electrophoresis (pBR322); type: biochemical
T1 sequence (P11387 1-765): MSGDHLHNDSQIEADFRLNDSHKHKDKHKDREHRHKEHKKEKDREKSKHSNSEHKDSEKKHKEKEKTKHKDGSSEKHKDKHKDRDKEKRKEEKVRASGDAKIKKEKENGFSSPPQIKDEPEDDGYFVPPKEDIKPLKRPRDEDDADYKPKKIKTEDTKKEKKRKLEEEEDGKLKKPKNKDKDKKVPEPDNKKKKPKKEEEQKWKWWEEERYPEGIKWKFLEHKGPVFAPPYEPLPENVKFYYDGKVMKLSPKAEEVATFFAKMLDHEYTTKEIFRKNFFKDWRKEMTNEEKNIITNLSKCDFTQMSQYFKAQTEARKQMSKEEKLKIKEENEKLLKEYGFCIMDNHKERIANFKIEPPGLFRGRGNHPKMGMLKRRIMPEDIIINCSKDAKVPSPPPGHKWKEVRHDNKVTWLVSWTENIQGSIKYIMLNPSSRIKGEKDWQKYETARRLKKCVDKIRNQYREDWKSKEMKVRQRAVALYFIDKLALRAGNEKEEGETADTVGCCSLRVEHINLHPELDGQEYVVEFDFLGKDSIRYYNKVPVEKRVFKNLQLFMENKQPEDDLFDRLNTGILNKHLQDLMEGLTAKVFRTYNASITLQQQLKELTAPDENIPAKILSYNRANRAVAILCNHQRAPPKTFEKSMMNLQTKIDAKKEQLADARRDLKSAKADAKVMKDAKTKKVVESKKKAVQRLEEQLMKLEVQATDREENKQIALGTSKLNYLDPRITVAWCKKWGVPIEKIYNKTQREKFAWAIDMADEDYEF
Procedure: In this assay, 250 ng of pBR322 plasmid DNA, different concentrations of the compounds to be tested, 0.1% BSA 1 μL, 10× Topo I buffer, Topo I and add 1× TAE buffer were mixed to a final volume of 20 μL. The reaction was carried out for 30 min at 37 °C in a water bath. After the reaction was terminated, 4 μL of each of the 6× DNA Sampling Buffers were added to the gel. The pBR322 plasmid DNA alone was used as a negative control, and camptothecin was used as a positive control. Finally, the samples were loaded onto the gels and electrophoresed for about 1.5 h. After electrophoresis, the gel blocks were incubated in 1 mg/L ethidium bromide (EB) for 30 min and then visualized on the gel system.

[4] = test system: PI3K/AKT/NF-κB pathway; assay: Western blot of PI3K/AKT/NF-κB signaling pathway in Cal27 cells; type: cell-based, human; conditions: Cal27, 24 h
Procedure: as §1

[5] = test system: Cal27 cells; assay: Wound healing assay; type: cell-based, human; conditions: 1-4 μM, 24 h
Procedure: Cal27 cells in the logarithmic growth phase were inoculated into 6-well plates and cultured until the cells fused into a monolayer. A linear wound was then formed by scratching vertically with a 200 μL sterilized gun tip. The cells were washed 3 times with PBS to remove scraped off cells, and each well was incubated by adding medium. The initial scratched area was recorded with a microscope. Then different concentrations of the compounds to be tested were added, and the area of the scratches was recorded by microscopy 24 h later.

Cc1cc(C)c2c(n1)S(=O)(=O)c1c-2nc(NCCN2CCCCC2)c2ccccc12 [7be, 7,9-Dimethyl-5-((2-(piperidin-1-yl)ethyl)amino) pyrido[3′,2′:4,5]thieno[3,2-c]isoquinoline 11,11-dioxide]
concentration needed to significantly downregulate the level of c-MYC protein [1]: 2 µM
cell survival rate of combined treatment with 20 μM CQ [2]: higher than that of the group treated with compound 7be alone
Topo I inhibitory activity (in words) ([3]; 20 μM): potent Topo I activity
concentration at which the activity of Topo I was fully inhibited ([3]; different concentrations): 20 µM
expression and phosphorylation levels of NF-κB [4]: decrease
expression levels of PI3K [4]: slightly increased
phosphorylation levels of PI3K and AKT [4]: significantly repressed
migration of Cal27 cells (in words) [5]: effectively inhibit migration
